In ChEMBL document CHEMBL1139608, “Non-hydroxamate 5-phenylpyrimidine-2,4,6-trione derivatives as selective inhibitors of tumor necrosis factor-alpha converting enzyme” (Bioorg Med Chem Lett, 2005) one finds Ki, inhibition and IC50 data, which are given here for 20 compounds.

As usually defined, the Ki is the equilibrium dissociation constant of an inhibitor or competing ligand from its target. A high value points to lower affinity. By inhibition is commonly meant the drop in the measured response relative to a control, in per cent. Usually IC50 stands for the point on the concentration scale where inhibition reaches its midpoint.

One assay addresses T1, Interstitial collagenase (Homo sapiens, UniProt P03956).
T1 sequence (P03956 whole entry): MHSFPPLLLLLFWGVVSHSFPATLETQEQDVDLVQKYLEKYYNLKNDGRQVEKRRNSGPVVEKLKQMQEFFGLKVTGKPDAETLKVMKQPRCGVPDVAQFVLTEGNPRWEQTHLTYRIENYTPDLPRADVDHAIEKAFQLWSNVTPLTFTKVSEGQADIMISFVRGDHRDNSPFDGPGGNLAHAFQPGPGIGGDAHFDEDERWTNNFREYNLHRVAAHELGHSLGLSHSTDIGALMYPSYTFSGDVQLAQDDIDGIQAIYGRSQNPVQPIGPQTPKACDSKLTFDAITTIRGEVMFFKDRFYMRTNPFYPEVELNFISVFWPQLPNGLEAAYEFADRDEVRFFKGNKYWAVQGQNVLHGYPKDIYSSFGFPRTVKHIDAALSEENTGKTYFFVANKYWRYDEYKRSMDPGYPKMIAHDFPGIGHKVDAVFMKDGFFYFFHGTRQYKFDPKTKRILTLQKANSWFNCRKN
Put plainly: In vitro binding affinity against matrix metalloprotease 1.

Assay [1] deals with Matrix metalloproteinase-9 (Homo sapiens, UniProt P14780). As to the kind of experiment: In vitro binding affinity against matrix metalloprotease 9.
Matrix metalloproteinase-9, sequence (P14780 whole entry): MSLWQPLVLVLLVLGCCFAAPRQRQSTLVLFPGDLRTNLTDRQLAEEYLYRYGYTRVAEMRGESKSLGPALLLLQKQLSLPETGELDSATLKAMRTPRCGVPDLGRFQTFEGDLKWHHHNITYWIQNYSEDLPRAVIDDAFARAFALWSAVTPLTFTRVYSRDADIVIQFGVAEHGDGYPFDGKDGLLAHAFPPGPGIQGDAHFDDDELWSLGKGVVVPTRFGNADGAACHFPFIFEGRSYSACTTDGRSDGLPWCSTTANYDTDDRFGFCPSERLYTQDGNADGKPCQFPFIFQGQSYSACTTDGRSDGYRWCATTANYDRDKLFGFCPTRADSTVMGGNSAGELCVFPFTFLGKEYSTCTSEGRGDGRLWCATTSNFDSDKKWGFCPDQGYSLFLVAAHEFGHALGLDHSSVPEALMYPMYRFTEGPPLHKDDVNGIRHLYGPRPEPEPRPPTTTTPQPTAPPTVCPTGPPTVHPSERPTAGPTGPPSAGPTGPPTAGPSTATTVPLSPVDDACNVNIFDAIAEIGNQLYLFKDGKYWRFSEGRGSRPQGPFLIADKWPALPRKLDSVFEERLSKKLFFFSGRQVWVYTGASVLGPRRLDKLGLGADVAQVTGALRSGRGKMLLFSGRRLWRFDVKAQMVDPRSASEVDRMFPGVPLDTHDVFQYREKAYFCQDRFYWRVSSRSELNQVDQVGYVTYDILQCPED
Assay [2] addresses 72 kDa type IV collagenase (Homo sapiens, UniProt P08253). As to the kind of experiment: In vitro binding affinity against matrix metalloprotease 2.
A short description of assay [3]: In vitro percent inhibition against aggrecanase at the concentration of 1 uM.
For another assay, the target named is Collagenase 3 (Homo sapiens, UniProt P45452). As to the kind of experiment: In vitro binding affinity against matrix metalloprotease 13.
Assay [4] concerns the target Disintegrin and metalloproteinase domain-containing protein 17 (Homo sapiens, UniProt P78536). Put plainly: In vitro inhibitory concentration against human tumor necrosis factor-alpha converting enzyme.

72 kDa type IV collagenase, sequence (P08253 whole entry): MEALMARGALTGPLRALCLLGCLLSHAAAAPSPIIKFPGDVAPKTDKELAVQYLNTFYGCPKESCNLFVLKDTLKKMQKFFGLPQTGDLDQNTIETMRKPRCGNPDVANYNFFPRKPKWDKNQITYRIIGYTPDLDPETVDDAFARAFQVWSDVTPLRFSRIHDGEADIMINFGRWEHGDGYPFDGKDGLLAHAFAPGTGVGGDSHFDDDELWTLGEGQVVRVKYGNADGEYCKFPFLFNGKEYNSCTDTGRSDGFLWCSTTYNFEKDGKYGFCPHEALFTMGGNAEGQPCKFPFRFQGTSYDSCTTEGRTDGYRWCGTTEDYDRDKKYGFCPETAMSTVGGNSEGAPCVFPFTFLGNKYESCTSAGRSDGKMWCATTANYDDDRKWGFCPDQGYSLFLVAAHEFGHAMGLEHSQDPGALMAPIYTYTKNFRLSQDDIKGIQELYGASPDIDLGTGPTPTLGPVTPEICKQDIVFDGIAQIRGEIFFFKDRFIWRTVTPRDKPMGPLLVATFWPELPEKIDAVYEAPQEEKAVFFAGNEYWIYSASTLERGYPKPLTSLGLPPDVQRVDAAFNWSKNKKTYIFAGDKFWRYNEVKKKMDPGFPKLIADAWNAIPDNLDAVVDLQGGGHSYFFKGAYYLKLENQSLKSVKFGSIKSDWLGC
Disintegrin and metalloproteinase domain-containing protein 17, sequence (P78536 whole entry, the tested form may be a part): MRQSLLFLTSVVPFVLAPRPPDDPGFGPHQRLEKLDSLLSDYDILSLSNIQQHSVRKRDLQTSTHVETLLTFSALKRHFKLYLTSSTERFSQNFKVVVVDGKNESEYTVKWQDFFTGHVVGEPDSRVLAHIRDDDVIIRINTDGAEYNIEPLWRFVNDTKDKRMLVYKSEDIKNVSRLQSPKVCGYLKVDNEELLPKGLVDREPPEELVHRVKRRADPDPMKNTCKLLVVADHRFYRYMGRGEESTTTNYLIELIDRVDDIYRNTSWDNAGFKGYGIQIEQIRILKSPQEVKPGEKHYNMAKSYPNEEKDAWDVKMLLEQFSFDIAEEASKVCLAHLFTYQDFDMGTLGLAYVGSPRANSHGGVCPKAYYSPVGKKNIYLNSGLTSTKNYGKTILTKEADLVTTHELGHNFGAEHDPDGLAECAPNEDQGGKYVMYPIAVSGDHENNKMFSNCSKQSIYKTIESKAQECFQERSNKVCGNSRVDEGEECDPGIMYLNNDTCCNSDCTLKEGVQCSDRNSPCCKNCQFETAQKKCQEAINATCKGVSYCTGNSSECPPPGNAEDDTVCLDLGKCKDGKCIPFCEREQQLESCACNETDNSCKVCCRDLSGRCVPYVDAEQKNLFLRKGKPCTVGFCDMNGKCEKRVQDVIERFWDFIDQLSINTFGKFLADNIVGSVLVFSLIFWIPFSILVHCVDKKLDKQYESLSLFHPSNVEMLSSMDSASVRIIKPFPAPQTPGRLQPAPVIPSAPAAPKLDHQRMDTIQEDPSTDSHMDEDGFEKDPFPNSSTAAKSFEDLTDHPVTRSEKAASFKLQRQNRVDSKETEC

For the compound `Cc1cc(COc2ccc(C3(N4CCN(c5ccc([N+](=O)[O-])cc5)CC4)C(=O)NC(=O)NC3=O)cc2)c2ccccc2n1`, the inhibitory constant (Ki) was more than 4.35 µM on Interstitial collagenase, 0.138 µM in assay [1], 0.116 µM in assay [2] and 0.356 µM on Collagenase 3. The compound also gave an inhibition in assay [3] of 0%. In addition, in assay [4], the concentration for half-maximal inhibition (IC50) was 2.8 µM.

Consider `Cc1cc(COc2ccc(C3(C)C(=O)NC(=O)NC3=O)cc2)c2ccccc2n1`, for which the inhibition constant Ki is more than 4.95 µM at Interstitial collagenase, more than 2.13 µM in assay [1], more than 3.33 µM in assay [2] and 5.02 µM on Collagenase 3. Besides, in assay [3], the inhibition worked out at 0%. Besides, the concentration for half-maximal inhibition (IC50) in assay [4] came out at 1.03 µM.

`Cc1cc(COc2ccc(C3(N4CCN(CCCc5ccccc5)CC4)C(=O)NC(=O)NC3=O)cc2)c2ccccc2n1`: the Ki on Interstitial collagenase was more than 4.95 µM; in assay [1] it was 2.04 µM; in assay [2], 3.1 µM; on Collagenase 3, 5.02 µM. Also, in assay [3], the inhibition was determined as 12%. In assay [4], this compound displayed an IC50 of 0.11 µM.

Take `CCCCCCN1CCN(C2(c3ccc(OCc4cc(C)nc5ccccc45)cc3)C(=O)NC(=O)NC2=O)CC1`: the Ki at Interstitial collagenase was more than 4.95 µM; in assay [1] it was more than 2.13 µM; in assay [2], more than 3.33 µM; on Collagenase 3 it was more than 5.02 µM. For the same compound, in assay [3], the inhibition was determined as 12%. The same compound returned an IC50 in assay [4] of 0.081 µM.

Compound `Cc1cc(COc2ccc3cc(C4(C)C(=O)NC(=O)NC4=O)ccc3c2)c2ccccc2n1` yielded a Ki in assay [2] of 3.33 µM. The inhibition in assay [3] was 1%. Also, the IC50 in assay [4] is more than 100 µM.

Regarding `Cc1cc(COc2ccc(C3(N4CCN(C(=O)OC(C)(C)C)CC4)C(=O)NC(=O)NC3=O)cc2)c2ccccc2n1`, the Ki on Interstitial collagenase was more than 4.95 µM; in assay [1], more than 2.13 µM; in assay [2], more than 3.33 µM; at Collagenase 3, more than 5.02 µM. This compound came in with an inhibition in assay [3] of 10%. This compound also came in with a concentration for half-maximal inhibition (IC50) in assay [4] of 0.16 µM.

Turning to `Cc1cc(COc2ccc(C3(N4CCN(C(C)C)CC4)C(=O)NC(=O)NC3=O)cc2)c2ccccc2n1`, the Ki at Interstitial collagenase was more than 4.95 µM; in assay [1] it was more than 2.13 µM; in assay [2], more than 3.33 µM; on Collagenase 3, more than 5.02 µM. The compound further yielded an inhibition in assay [3] of 0%. Also, the IC50 in assay [4] was 0.096 µM.

With `Cc1cc(COc2ccc(C3(N4CCN(CCc5ccccc5)CC4)C(=O)NC(=O)NC3=O)cc2)c2ccccc2n1`, the inhibition constant Ki at Interstitial collagenase is more than 4.95 µM; in assay [1], 0.085 µM; in assay [2], 0.083 µM; at Collagenase 3 it was 0.095 µM. Besides, in assay [3], the inhibition is 38%. In assay [4], this compound returned a 50% inhibitory concentration (IC50) of 0.084 µM.

Consider `CC1(c2ccc(O)cc2)C(=O)NC(=O)NC1=O`, for which the Ki at Interstitial collagenase is more than 4.95 µM; in assay [1], 0.85 µM; in assay [2] it was 2.53 µM; at Collagenase 3, more than 5.02 µM. Also, the inhibition in assay [3] amounted to 0%. Moreover, the 50% inhibitory concentration (IC50) in assay [4] is more than 100 µM.

With `CC1(c2ccc(Oc3ccccc3)cc2)C(=O)NC(=O)NC1=O`, the Ki was 0.052 µM in assay [1], 0.08 µM in assay [2] and 0.065 µM on Collagenase 3.

For the compound `Cc1cc(COc2ccc(C3(N4CCCCC4)C(=O)NC(=O)NC3=O)cc2)c2ccccc2n1`, the Ki on Interstitial collagenase is more than 4.95 µM; in assay [1], more than 2.13 µM; in assay [2] it was more than 3.33 µM; at Collagenase 3, more than 5.02 µM. The compound also returned an inhibition in assay [3] of 0%. Further, the concentration for half-maximal inhibition (IC50) in assay [4] came out at 0.855 µM.

As for `CC1(c2ccc(OCc3ccccc3)cc2)C(=O)NC(=O)NC1=O`, the inhibition constant Ki is more than 4.95 µM on Interstitial collagenase, more than 2.13 µM in assay [1], 0.6 µM in assay [2] and 4.02 µM on Collagenase 3. The same compound had an inhibition in assay [3] of 0%. In assay [4], this compound gave a half-maximal inhibitory concentration (IC50) of more than 100 µM.

Regarding `Cc1cc(COc2ccc(C3(N4CCN(C)CC4)C(=O)NC(=O)NC3=O)cc2)c2ccccc2n1`, the Ki is more than 4.95 µM on Interstitial collagenase, more than 2.13 µM in assay [1], more than 3.33 µM in assay [2] and more than 5.02 µM at Collagenase 3. The inhibition in assay [3] stood at 37%. The compound further came in with a half-maximal inhibitory concentration (IC50) in assay [4] of 0.091 µM.

`Cc1cc(COc2ccc(C3(N4CCN(C(=O)C(C)(C)C)CC4)C(=O)NC(=O)NC3=O)cc2)c2ccccc2n1`: the inhibitory constant (Ki) on Interstitial collagenase is more than 4.95 µM; in assay [1], more than 2.13 µM; in assay [2] it was more than 3.33 µM; at Collagenase 3, more than 5.02 µM. This compound also gave an inhibition in assay [3] of 0%. In addition, the concentration for half-maximal inhibition (IC50) in assay [4] was found to be 5.4 µM.

Consider `Cc1cc(COc2ccc(C3(N4CCNCC4)C(=O)NC(=O)NC3=O)cc2)c2ccccc2n1`, for which the inhibition constant Ki at Interstitial collagenase was more than 4.95 µM; in assay [1], more than 2.13 µM; in assay [2], more than 3.33 µM; at Collagenase 3 it was more than 5.02 µM. Further, the inhibition in assay [3] turned out to be 0%. In addition, the midpoint of inhibition in assay [4], the IC50, lay at 1.1 µM.

Turning to `CC(=O)c1ccc(N2CCN(C3(c4ccc(OCc5cc(C)nc6ccccc56)cc4)C(=O)NC(=O)NC3=O)CC2)cc1`, the inhibition constant (Ki) at Interstitial collagenase is more than 4.95 µM; in assay [1] it was more than 2.13 µM; in assay [2], more than 3.33 µM; on Collagenase 3, more than 5.02 µM. The compound further gave an inhibition in assay [3] of 8%. In assay [4], this compound registered an IC50 of 0.62 µM.

On to `Cc1cc(COc2ccc(C3(N4CCN(Cc5ccccc5)CC4)C(=O)NC(=O)NC3=O)cc2)c2ccccc2n1`, for which the inhibitory constant (Ki) on Interstitial collagenase was more than 4.95 µM; in assay [1] it was more than 2.13 µM; in assay [2] it was more than 3.33 µM; at Collagenase 3, more than 5.02 µM. Moreover, in assay [3], the inhibition came out at 5%. The same compound gave an IC50 in assay [4] of 0.195 µM.

Take `Cc1cc(COc2ccc(C3(N4CCOCC4)C(=O)NC(=O)NC3=O)cc2)c2ccccc2n1`: the Ki on Interstitial collagenase was more than 4.95 µM; in assay [1], more than 2.13 µM; in assay [2], more than 3.33 µM; on Collagenase 3 it was more than 5.02 µM. The compound further showed an inhibition in assay [3] of 1%. For the same compound, the midpoint of inhibition in assay [4], the IC50, lay at 0.535 µM.

Take `Cc1cc(COc2ccc(C3(N4CCN(S(C)(=O)=O)CC4)C(=O)NC(=O)NC3=O)cc2)c2ccccc2n1`: the Ki was more than 4.95 µM at Interstitial collagenase, more than 2.13 µM in assay [1], more than 3.33 µM in assay [2] and more than 5.02 µM on Collagenase 3. The compound further yielded an inhibition in assay [3] of 5%. In assay [4], this compound returned a concentration for half-maximal inhibition (IC50) of 0.275 µM.

Turning to `Cc1cc(COc2ccc(C3(N4CCN(CC(C)(C)C)CC4)C(=O)NC(=O)NC3=O)cc2)c2ccccc2n1`, the inhibition constant Ki on Interstitial collagenase was more than 4.95 µM; in assay [1], more than 2.13 µM; in assay [2], more than 3.33 µM; at Collagenase 3, more than 5.02 µM. Besides, the inhibition in assay [3] came to 10%. The same compound returned an IC50 in assay [4] of 0.16 µM.
